According to paper PMC2606939 (The Journal of General Physiology, 2009):

Key:
CLC-0 [1] = biological target: CLC-0 (Torpedo marmorata, UniProt P21564, E166G); test: cell-based
CLC-0 [2] = biological target: CLC-0 (Torpedo marmorata, UniProt P21564, E166A); test: cell-based
Chain of CLC-0 (Torpedo marmorata, UniProt P21564, E166A) (P21564 whole entry E166A): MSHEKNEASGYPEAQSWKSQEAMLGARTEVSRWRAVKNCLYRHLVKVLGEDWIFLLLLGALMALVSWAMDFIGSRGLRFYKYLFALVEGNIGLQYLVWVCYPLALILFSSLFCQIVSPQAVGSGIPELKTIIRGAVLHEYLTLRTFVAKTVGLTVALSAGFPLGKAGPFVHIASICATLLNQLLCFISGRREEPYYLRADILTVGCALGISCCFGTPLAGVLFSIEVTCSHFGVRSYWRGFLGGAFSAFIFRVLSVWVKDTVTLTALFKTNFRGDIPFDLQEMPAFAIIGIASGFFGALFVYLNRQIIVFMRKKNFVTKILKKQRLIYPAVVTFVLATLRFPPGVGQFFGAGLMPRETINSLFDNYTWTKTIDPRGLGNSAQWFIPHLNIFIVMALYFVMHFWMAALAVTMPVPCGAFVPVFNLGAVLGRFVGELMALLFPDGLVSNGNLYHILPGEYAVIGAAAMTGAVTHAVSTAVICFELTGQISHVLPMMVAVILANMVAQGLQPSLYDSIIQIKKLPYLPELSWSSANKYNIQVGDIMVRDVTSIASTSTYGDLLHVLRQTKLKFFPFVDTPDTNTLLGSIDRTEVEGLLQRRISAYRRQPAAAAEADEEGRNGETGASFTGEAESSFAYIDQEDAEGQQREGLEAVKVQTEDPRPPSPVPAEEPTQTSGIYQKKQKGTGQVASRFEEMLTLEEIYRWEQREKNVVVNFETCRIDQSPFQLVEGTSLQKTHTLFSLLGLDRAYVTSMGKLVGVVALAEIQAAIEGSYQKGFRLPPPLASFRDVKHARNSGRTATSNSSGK

Chain of CLC-0 (Torpedo marmorata, UniProt P21564, E166G) (P21564 whole entry E166G): as the sequence (P21564 whole entry E166A) above, with A166G counted along it

Work on `CCCCCCCC(=O)O` [OA, octanoate] yielded an IC50 (CLC-0 [1]) of 160 ± 10 µM and an IC50 (CLC-0 [2]) of 120 ± 20 µM.
